Experimental data published in paper PMC6208607, “Transport of Pregabalin Via L-Type Amino Acid Transporter 1 (SLC7A5) in Human Brain Capillary Endothelial Cell Line” (Pharmaceutical Research, 2018).

How the values were obtained:
[1] = target: T1, L-type amino acid transporter 1 (LAT1) (Homo sapiens, UniProt Q01650); assay: inhibition of pregabalin uptake in hCMEC/D3 cells at […] (LAT1 role supported by siRNA); assay type: cell-based; set-up: gene SLC7A5; endogenous LAT1 in hCMEC/D3 cells; conditions: read-out: Uptake (% of Control)
T1 sequence (Q01650 whole entry): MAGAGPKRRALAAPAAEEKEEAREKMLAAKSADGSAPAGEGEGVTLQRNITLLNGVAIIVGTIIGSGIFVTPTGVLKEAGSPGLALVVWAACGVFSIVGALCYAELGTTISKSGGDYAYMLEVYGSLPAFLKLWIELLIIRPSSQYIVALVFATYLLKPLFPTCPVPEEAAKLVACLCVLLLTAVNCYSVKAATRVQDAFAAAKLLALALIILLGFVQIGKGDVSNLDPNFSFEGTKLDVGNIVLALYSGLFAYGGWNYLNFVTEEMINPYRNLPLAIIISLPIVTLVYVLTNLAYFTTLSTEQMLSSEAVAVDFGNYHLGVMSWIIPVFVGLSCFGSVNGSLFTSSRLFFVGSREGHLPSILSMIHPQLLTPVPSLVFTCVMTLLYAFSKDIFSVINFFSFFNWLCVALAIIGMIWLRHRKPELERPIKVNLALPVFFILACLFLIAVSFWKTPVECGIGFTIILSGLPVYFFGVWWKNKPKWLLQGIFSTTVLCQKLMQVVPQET
T1 sequence (P08195 103-630 partner): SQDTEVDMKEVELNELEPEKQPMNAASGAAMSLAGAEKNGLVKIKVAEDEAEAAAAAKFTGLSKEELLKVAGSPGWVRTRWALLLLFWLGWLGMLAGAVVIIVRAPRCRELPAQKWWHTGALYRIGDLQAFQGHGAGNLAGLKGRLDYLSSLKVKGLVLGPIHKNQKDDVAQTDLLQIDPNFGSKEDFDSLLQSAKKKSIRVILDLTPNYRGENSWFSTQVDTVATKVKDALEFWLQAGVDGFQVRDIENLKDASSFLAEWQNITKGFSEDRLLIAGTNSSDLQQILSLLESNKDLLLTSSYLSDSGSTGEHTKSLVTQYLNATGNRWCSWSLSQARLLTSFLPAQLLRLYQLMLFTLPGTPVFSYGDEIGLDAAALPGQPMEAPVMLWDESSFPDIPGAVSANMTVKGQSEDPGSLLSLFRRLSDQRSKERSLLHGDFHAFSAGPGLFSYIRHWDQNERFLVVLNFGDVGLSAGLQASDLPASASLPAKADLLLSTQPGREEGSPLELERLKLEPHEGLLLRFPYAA

[2] = target: T1, L-type amino acid transporter 1 (LAT1); assay: LC-MS/MS uptake in LAT1-overexpressing HEK293 cells vs mock; inhibition of […]L-leucine uptake at […]; assay type: cell-based; set-up: gene SLC7A5; entire coding region for human SLC7A5, expressed in HEK293 cells; with 4F2 heavy chain (4F2hc), endogenous

SMILES	remaining activity at 10 µM [1] [%]	Km [2] [µM]
Nc1cc(COc2c(Cl)cc(C[C@H](N)C(=O)O)cc2Cl)c2oc(-c3ccccc3)nc2c1 [JPH203]	< 6.53	–
CC(C)C[C@H](CN)CC(=O)O [pregabalin]	–	288
